Measurements as given in patent US7345009B2, “Substituted 4-hetaryl-pyrazolines as pest control agents” (Bayer CropScience AG, priority 2002, dated 2008).
Values belong to the compound of their own block, whether it stands above or below them.

How the values were obtained:
[1] = logP determination by reversed-phase HPLC (EEC directive 79/831 Annex V.A8), pH 2.3; type: physicochemical; settings: reversed-phase HPLC column (C18), HPLC C18, 43° C., Preparation Examples
Description: The logP values given in the tables and Preparation Examples above are determined in accordance with EEC directive 79/831 Annex V.A8 by HPLC (High Performance Liquid Chromatography) using a reversed-phase column (C 18). Temperature: 43° C.
The determination is carried out in the acidic range at pH 2.3 using the mobile phases 0.1% aqueous phosphoric acid and acetonitrile; linear gradient from 10% acetonitrile to 90% acetonitrile.
Calibration is carried out using unbranched alkan-2-ones (of 3 to 16 carbon atoms) with known logP values (determination of the logP values by retention times using linear interpolation between two successive alkanones).

[2] = tested on: larvae of the mustard beetle (Phaedon cochleariae); assay: Phaedon larvae test (Example C); type: in vivo; settings: 500 ppm active compound; after 7 days; cabbage leaves dipped
Description: Phaedon larvae Test Solvent: 7 parts by weight of dimethylformamide Emulsifier: 2 parts by weight of alkylaryl polyglycol ether To produce a suitable preparation of active compound, 1 part by weight of active compound is mixed with the stated amounts of solvent and emulsifier, and the concentrate is diluted with emulsifier-containing water to the desired concentration. Cabbage leaves (Brassica oleracea) are treated by being dipped into the preparation of active compound of the desired concentration and are populated with larvae of the mustard beetle (Phaedon cochleariae) while the leaves are still moist.

[3] = tested on: caterpillars of the army worm (Spodoptera frugiperda); assay: Spodoptera frugiperda test (Example F); type: in vivo; settings: 500 ppm active compound; after 7 days; cabbage leaves dipped
Description: Spodoptera frugiperda Test
(§1) Solvent: 7 parts by weight of dimethylformamide
(§2) Emulsifier: 2 parts by weight of alkylaryl polyglycol ether
(§3) To produce a suitable preparation of active compound, 1 part by weight of active compound is mixed with the stated amounts of solvent and emulsifier, and the concentrate is diluted with emulsifier-containing water to the desired concentration.
Cabbage leaves (Brassica oleracea) are treated by being dipped into the preparation of active compound of the desired concentration and are populated with caterpillars of the army worm (Spodoptera frugiperda) while the leaves are still moist.
(§4) After the desired period of time, the kill in % is determined. 100% means that all caterpillars have been killed; 0% means that none of the caterpillars have been killed.

[4] = tested on: caterpillars of the army worm (Spodoptera exigua); assay: Spodoptera exigua test (Example E); type: in vivo; settings: 500 ppm active compound; after 7 days; cabbage leaves dipped
Description: as §1, §2, §3
Cabbage leaves (Brassica oleracea) are treated by being dipped into the preparation of active compound of the desired concentration and are populated with caterpillars of the army worm (Spodoptera exigua) while the leaves are still moist.
as §4

[5] = tested on: caterpillars of the diamondback moth (Plutella xylostella); assay: Plutella test, cabbage leaf dip (Example D); type: in vivo; settings: 500 ppm active compound; after 7 days; cabbage leaves dipped
Description: as §1, §2, §3
Cabbage leaves (Brassica oleracea) are treated by being dipped into the preparation of active compound of the desired concentration and are populated with caterpillars of the diamondback moth (Plutella xylostella) while the leaves are still moist.
as §4

[6] = tested on: Heliothis virescens caterpillars; assay: Heliothis virescens test (Example B); type: in vivo; settings: 500 ppm active compound; after 7 days; soya bean shoots dipped
Description: as §1, §2, §3
Soya bean shoots (Glycine max) are treated by being dipped into the preparation of active compound of the desired concentration and are populated with Heliothis virescens caterpillars while the leaves are still moist.
as §4

[7] = tested on: caterpillars of the cotton bud worm (Heliothis armigera); assay: Heliothis armigera test (Example A); type: in vivo; settings: 500 ppm active compound; after 7 days; soya bean shoots dipped
Description: as §1, §2, §3
Soya bean shoots (Glycine max) are treated by being dipped into the preparation of active compound of the desired concentration and are populated with caterpillars of the cotton bud worm (Heliothis armigera) while the leaves are still moist.
as §4

chromatographic logP [1]: 1.78
SMILES: Cn1nnnc1CC(=O)c1ccc(Cl)cc1 [2-(1-methyltetrazol-5-yl)-4′-chloroacetophenone]

chromatographic logP [1]: 4
SMILES: Cc1nnn(C2CN(C(=O)Nc3ccc(OC(F)(F)F)cc3)N=C2c2ccc(Cl)cc2)n1 (centres unmarked) [Example 1, N-(4-trifluoromethoxy)-3-(4-chlorophenyl)-4-(5-methyltetrazol-2-yl)-4,5-dihydro-1-pyrazolecarboxanilide]
kill [2]: 100%
kill [3]: 100%
kill [4]: 100%
kill [5]: 100%
kill [6]: 100%

chromatographic logP [1]: 1.67
SMILES: Cn1nnc(C2CNN=C2c2ccc(Cl)cc2)n1 (centres unmarked) [3-(4-chlorophenyl)-4-(2-methyltetrazol-5-yl)-4,5-dihydro-1H-pyrazole]

chromatographic logP [1]: 2.11
SMILES: Cc1nnn(C2CNN=C2c2ccc(Cl)cc2)n1 (centres unmarked) [3-(4-chlorophenyl)-4-(5-methyltetrazol-2-yl)-4,5-dihydro-1H-pyrazole]

chromatographic logP [1]: 3.68
SMILES: Cc1nnn(C2CN(C(=O)N(CC#N)c3ccc(OC(F)(F)F)cc3)N=C2c2ccc(Cl)cc2)n1 (centres unmarked) [Example 2, N-cyanomethyl-N-trifluoromethoxy-3-(4-chlorophenyl)-4-(5-methyltetrazol-2-yl)-4,5-dihydro-1-pyrazolecarboxanilide]
kill [2]: 100%
kill [3]: 100%
kill [4]: 100%
kill [7]: 100%
kill [5]: 100%

chromatographic logP [1]: 1.44
SMILES: O=C(Cc1nn[nH]n1)c1ccc(Cl)cc1 [2-tetrazol-5-yl-4′-chloroacetophenone]

chromatographic logP [1]: 2.14
SMILES: Cc1nnn(CC(=O)c2ccc(Cl)cc2)n1 [2-(5-methyltetrazol-2-yl)-4′-chloroacetophenone]

chromatographic logP [1]: 1.81
SMILES: Cc1nnnn1CC(=O)c1ccc(Cl)cc1 [2-(5-methyltetrazol-1-yl)-4′-chloroacetophenone]

chromatographic logP [1]: 2.03
SMILES: Cn1nnc(CC(=O)c2ccc(Cl)cc2)n1 [2-(2-methyltetrazol-5-yl)-4′-chloroacetophenone]

chromatographic logP [1]: 1.77
SMILES: Cc1nnc(C2CNN=C2c2ccc(Cl)cc2)s1 (centres unmarked) [3-(4-chlorophenyl)-4-(2-methyl-1,3,4-thiadiazol-5-yl)-4,5-dihydro-1H-pyrazole]

chromatographic logP [1]: 3.77
SMILES: Cc1nnc(C2CN(C(=O)Nc3ccc(OC(F)(F)F)cc3)N=C2c2ccc(Cl)cc2)s1 (centres unmarked) [Example 4, N-(4-trifluoromethoxy)-3-(4-chlorophenyl)-4-(5-methyl-1,3,4-thiadiazol-2-yl)-4,5-dihydro-1-pyrazolecarboxanilide]
kill [2]: 100%
kill [3]: 100%
kill [4]: 100%
kill [7]: 100%
kill [5]: 100%
